# Measured values taken from ChEMBL document CHEMBL1128355, “Benzophenone derivatives: a novel series of potent and selective inhibitors of human immunodeficiency virus type 1 reverse transcriptase” (J Med Chem, 1995).
# Columns and labels:
# [1] = target: Human immunodeficiency virus type 1 reverse transcriptase (Human immunodeficiency virus 1, UniProt Q72547); assay: Inhibitory activity against HIV-1 reverse transcriptase
# [2] = Toxicity against uninfected MT-4 cells; assay type: cell-based, MT4; settings: human
# [3] = Half life period in mouse serum; assay type: ADME, organism-based
# C8166 [4] = assay: Inhibitory activity against syncytia formation in infected C8166 cells; assay type: functional, cell-based; settings: Homo sapiens
# C8166 [5] = assay: Inhibitory activity against P24 antigen formation in infected C8166 cells; assay type: functional, cell-based; settings: Homo sapiens
# [6] = Half life period in mouse S9 liver preparation; assay type: ADME; settings: liver S9 fraction
# [7] = system: Human immunodeficiency virus 1; assay: Antiviral activity against HIV-1 (strain RF) infected MT-4 cells; assay type: functional, organism-based; settings: Human immunodeficiency virus 1, MT4
# MT4 [8] = assay: Cytotoxicity against uninfected MT-4 cells; assay type: functional, cell-based, Homo sapiens
# MT4 [9] = assay: Antiviral activity against HIV-1 resistant to 2-(2-Benzoyl-4-chloro-phenyl)-N-[4-(3-dimethylamino-propoxy)-2-methyl-phenyl]-acetamide in MT-4 cells; assay type: functional, cell-based; settings: Homo sapiens
# [10] = Homo sapiens, MT4, read-out: IC50
SMILES,IC50 [1] [µM],IC50 [2] [µg/mL],half-life [3] [h],IC50 (C8166 [4]) [µg/mL],IC50 (C8166 [5]) [µg/mL],half-life [6] [h],IC50 [7] [µg/mL],IC50 (MT4 [8]; [10]) [µg/mL],IC50 (MT4 [9]) [µg/mL],IC50 (MT4 [8]; mt4) [µg/mL]
O=C(c1ccccc1)c1cc(Cl)ccc1OCC(=O)N1CCc2ccccc2C1,0.0148,> 0.5,1.2,0.011,0.016,2.8,0.014,,,
O=C(COc1ccc(-n2ccnc2)cc1C(=O)c1ccccc1)Nc1ccccc1,> 25.2,10,,,,,> 10,,,
CCN(CC)CCOc1ccc(NC(=O)COc2ccccc2C(=O)c2ccc(F)cc2)cc1,21.5,> 0.5,,0.016,< 0.05,,0.75,,,
O=C(COc1ccc(Cl)cc1C(O)c1ccccc1)Nc1ccccc1 (configuration not stated),> 272,,,,,,,,,
O=C(COc1ccc(Cl)cc1C(=O)c1ccccc1)Nc1ccccc1,0.0273,> 0.005,< 0.25,0.0002,0.0012,< 0.25,0.0004,,,
O=C(COc1ccc(Cl)cc1C(=O)c1cccnc1)Nc1ccccc1,0.436,10,,,,,< 0.01,,,
O=C(COc1ccc(Cl)cc1C(=O)c1ccccc1)NC1CCCCC1,39,,,,,,,,,
c1nc2cnncc2[nH]1,,,,,,,0.004,> 1,0.5,
CCN(CC)CCOc1ccc(NC(=O)COc2ccccc2C(=O)c2ccc(OC)cc2)cc1,14.3,5,,0.34,0.18,,0.44,,,
O=C(COc1ccc(Cl)cc1C(=O)c1ccccc1)c1cc2ccccc2[nH]1,0.162,10,< 0.25,> 50,> 5,3.5,0.7,,,
O=C(COc1ccc(Cl)cc1C(=O)C1CCCC1)Nc1ccccc1,5.03,> 100,,,,,0.22,,,
Cc1cc(OCCCN(C)C)ccc1NC(=O)Cc1ccc(Cl)cc1C(=O)c1ccccc1,0.753,> 0.5,4.75,0.016,0.0029,1.8,0.0044,,,
CCN(CC)CCOc1ccc(NC(=O)COc2ccccc2C(=O)c2ccccc2)cc1,5.15,> 0.5,,0.005,0.0015,,< 0.001,,,
CN(C)CCCOc1ccc(NC(=O)Cc2ccc(Cl)cc2C(=O)c2ccccc2)cc1,0.443,10,,,,,0.21,,,
O=C(c1ccccc1)c1cc(Cl)ccc1OCc1nc2ccccc2[nH]1,1.41,> 0.5,> 6,0.052,0.032,> 6,0.31,,,
O=C(COc1ccc(Cl)cc1C(=O)c1ccccc1)Cc1ccccc1,32.9,> 100,,,,,> 100,,,
Cc1cc(OCCCN(C)C)cc(C)c1NC(=O)Cc1ccc(Cl)cc1C(=O)c1ccccc1,> 104,,,,,,,,,

SMILES,IC50 [1] [µM],IC50 [2] [µg/mL],half-life [3] [h],IC50 (C8166 [4]) [µg/mL],IC50 (C8166 [5]) [µg/mL],half-life [6] [h],IC50 [7] [µg/mL],IC50 (MT4 [8]; [10]) [µg/mL],IC50 (MT4 [9]) [µg/mL],IC50 (MT4 [8]; mt4) [µg/mL]
O=C(COc1ccc(Cl)c(Cl)c1C(=O)c1ccccc1)Nc1ccccc1,> 250,,,,,,,,,
CCN(CC)CCOc1ccc(NC(=O)COc2ccc(Cl)cc2C(=O)c2ccccc2)cc1,0.936,10,,,,,> 10,,,
O=C(COc1c(Cl)cc(Cl)cc1C(=O)c1ccccc1)Nc1ccccc1,> 250,,,,,,,,,
Cc1cc(OCCCN(C)C)ccc1NC(=O)c1ccc(Cl)cc1C(=O)c1ccccc1,> 222,,,,,,,,,
CN(C)CCCOc1ccc(NC(=O)COc2ccc(Cl)cc2C(=O)c2ccccc2)cc1,0.208,> 0.5,< 0.25,0.0009,< 0.0005,> 2,< 0.01,,,
Cc1ccccc1CNC(=O)COc1ccc(Cl)cc1C(=O)c1ccccc1,6.35,10,2.8,0.05,0.032,> 6,0.028,,,
O=C(COc1ccc(F)cc1C(=O)c1ccccc1)Nc1ccccc1,0.00859,10,,0.014,0.006,,0.09,,,
O=C(c1ccccc1)c1cc(Cl)ccc1OCCNc1ccccc1,> 284,,,,,,,,,
O=C(COc1cc(Cl)c(Cl)cc1C(=O)c1ccccc1)Nc1ccccc1,0.035,100,,,,,0.023,,,
CCc1cc(OCCCN(C)C)ccc1NC(=O)Cc1ccc(Cl)cc1C(=O)c1ccccc1,5.22,10,,,,,0.21,,,
O=C(c1ccccc1)c1cc(Cl)ccc1OC/C=C/c1ccccc1,> 287,,,,,,,,,
CCN(CC)CCOc1ccc(NC(=O)COc2cc(OC)ccc2C(=O)c2ccccc2)cc1,13.2,5,,0.05,0.013,,< 0.01,,,
CCc1cc(NCc2nc3c(Cl)ccc(Cl)c3o2)c(O)nc1C [L-697661],,,,,,,0.0017,100,0.0023,100
Nc1ccn([C@@H]2CS[C@H](CO)O2)c(=O)n1 [LAMIVUDINE],,,,,,,0.043,> 100,0.048,
Cc1ccnc2c1NC(=O)c1cccnc1N2C1CC1 [NEVIRAPINE],,,,,,,0.01,> 10,0.22,
CC(C)(C)NC(=O)[C@@H]1C[C@@H]2CCCC[C@@H]2CN1C[C@@H](O)[C@H](Cc1ccccc1)NC(=O)[C@H](CC(N)=O)NC(=O)c1ccc2ccccc2n1 [SAQUINAVIR],,,,,,,0.028,> 1,0.0038,
